Assay results as given in paper PMC4916434, “Evaluation of the inhibition potential of plumbagin against cytochrome P450 using LC-MS/MS and cocktail approach” (Scientific Reports, 2016).

Tests used:
[1] = biological target: T1, CYP2C11 (Rattus norvegicus, UniProt P08683); assay type: in vitro ADME
T1 construct: consisting of pooled HLMs (0.5 mg/ml) or RLMs (1 mg/ml) and an NADPH-regenerating system; from tissue; host or cells: rat liver microsomes prepared in house
T1 sequence (P08683 1-500): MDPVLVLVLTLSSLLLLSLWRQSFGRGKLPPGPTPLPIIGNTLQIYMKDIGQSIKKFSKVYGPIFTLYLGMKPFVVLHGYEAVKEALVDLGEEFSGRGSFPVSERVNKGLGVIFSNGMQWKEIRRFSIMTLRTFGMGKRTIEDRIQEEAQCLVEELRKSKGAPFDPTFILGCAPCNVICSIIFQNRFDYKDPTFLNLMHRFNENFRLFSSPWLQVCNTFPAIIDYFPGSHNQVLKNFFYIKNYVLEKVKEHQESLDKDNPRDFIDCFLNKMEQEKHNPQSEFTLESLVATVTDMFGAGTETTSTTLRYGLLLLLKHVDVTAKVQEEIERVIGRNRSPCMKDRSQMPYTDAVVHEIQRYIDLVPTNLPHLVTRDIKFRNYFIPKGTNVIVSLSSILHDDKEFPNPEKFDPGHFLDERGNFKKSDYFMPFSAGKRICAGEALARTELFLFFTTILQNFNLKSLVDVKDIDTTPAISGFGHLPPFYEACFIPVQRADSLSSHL
Procedure: (§1) In this study, the rats were fasted overnight and killed by cervical dislocation before removal of the liver. The liver was excised, rinsed with ice-cold saline (0.9% NaCl w/v), weighed and homogenized in a […] Tris/KCl buffer (pH 7.4). Subsequently, the homogenate was centrifuged at 10,000 × g at 4 °C for 30 min. The supernatant was then centrifuged at 105,000 × g at 4 °C for 60 min. The pellet was reconstituted with […] Tris/KCl buffer (pH 7.4) and stored at −150 °C until use. The protein concentration of the liver microsomes was determined by a protein quantitative assay using bicinchoninic acid[22].
(§2) Microsomal incubation was carried out at 37 °C in a mixture of 200 μl in 0.05 M Tris/HCl buffer (pH 7.4) consisting of pooled HLMs (0.5 mg/ml) or RLMs (1 mg/ml) and an NADPH-regenerating system including MgCl2 (5 mM), G6P (10 mM), G6PDH (0.4 U/ml) and NADP (1 mM). Substrates were added into the incubation mixture and obtained the final concentrations (10 μM phenacetin for CYP1A2, 20 μM bupropion for CYP2B1/6, 20 μM tolbutamide for CYP2C9/11, 5 μM dextromethorphan for CYP2D1/6, 20 μM chlorzoxazone for CYP2E1 and 10 μM midazolam for CYP3A2/4), which were close to Km respectively. The proportion of organic solvent was not higher than 1% (v/v) in the incubation mixture. After pre-incubation for 5 min, the reaction was initiated by addition of NADP. Incubations were performed for 20 min, stopped by adding 200 μl ice-cold acetonitrile. And then 20 μl internal standard solution was added (3-acetamidophenol 2 μg/ml, chlorpropamide 2 μg/ml and mebendazole 2 μg/ml). The solution was mixed thoroughly for 3 min and centrifuged for 10 min at 16,000 × g at 4 °C. The supernatant (60 μl) was transferred to autosampler vials, and 2 μl was injected into LC-MS/MS system.
(§3) The IC50 (concentration of inhibitor to cause 50% inhibition of original enzyme activity) values were determined with the same incubation condition above. The specific concentrations of plumbagin were ranged from 0.1 μM to 50 μM. The IC50 values were calculated by plotting relative activities over the logarithm of plumbagin concentrations using GraphPad Prism 5.0 (GraphPad software Inc., CA, USA).
(§4) Cocktail probe substrates were then added and incubated for 20 min. Reactions were stopped with 200 μl ice-cold acetonitrile. The samples were treated according to the microsomal incubation method and then injected into LC-MS/MS for analysis.
(§5) Kinetic studies were performed for determining the types of inhibition on CYP by plumbagin. Pooled HLMs (0.5 mg/ml) or RLMs (1 mg/ml) with plumbagin (1 μM, 2 μM, 5 μM and 10 μM) were incubated in 0.05 M Tris/HCl buffer (pH 7.4) for 20 min at 37 °C. A series of concentrations for cocktail probe substrates were used: 2.5–20 μM phenacetin for CYP1A2; 5–40 μM bupropion for CYP2B1/6; 5–40 μM tolbutamide for CYP2C9/11; 1.25–10 μM dextromethorphan for CYP2D1/6; 5–40 μM chlorzoxazone for CYP2E1; 2.5–80 μM midazolam for CYP3A2; and 0.625–5 μM midazolam for CYP3A4. Enzyme kinetics as well as statistical analysis were performed using GraphPad Prism 5.0.
(§6) All data were presented as mean ± SD. The IC50 values were fitted by non-linear regression analysis using GraphPad Prism 5.0. The kinetic parameters were obtained by fitting velocity data to kinetic models (Michaelis-Menten) using GraphPad Prism 5.0. The Lineweaver-Burk Plot (the reciprocal of reaction velocities versus the reciprocal of substrates concentrations) was used to determine the quality of fit to a specific inhibition model. The inhibition constant (Ki) was obtained by a secondary plot using the slopes of the primary Lineweaver-Burk Plot (Km/Vmax versus inhibitor concentrations). αKi was obtained from a secondary plot using the y-intercepts of the Lineweaver-Burk plot (1/Vmax versus inhibitor concentrations). All results were analyzed in quadruplicate. One-way analysis of variance was used to estimate the significance of differences. […]

[2] = biological target: T2, CYP2B1 (Rattus norvegicus, UniProt P00176); assay type: in vitro ADME
T2 construct: consisting of pooled HLMs (0.5 mg/ml) or RLMs (1 mg/ml) and an NADPH-regenerating system; from tissue; host or cells: rat liver microsomes prepared in house
T2 sequence (P00176 1-491): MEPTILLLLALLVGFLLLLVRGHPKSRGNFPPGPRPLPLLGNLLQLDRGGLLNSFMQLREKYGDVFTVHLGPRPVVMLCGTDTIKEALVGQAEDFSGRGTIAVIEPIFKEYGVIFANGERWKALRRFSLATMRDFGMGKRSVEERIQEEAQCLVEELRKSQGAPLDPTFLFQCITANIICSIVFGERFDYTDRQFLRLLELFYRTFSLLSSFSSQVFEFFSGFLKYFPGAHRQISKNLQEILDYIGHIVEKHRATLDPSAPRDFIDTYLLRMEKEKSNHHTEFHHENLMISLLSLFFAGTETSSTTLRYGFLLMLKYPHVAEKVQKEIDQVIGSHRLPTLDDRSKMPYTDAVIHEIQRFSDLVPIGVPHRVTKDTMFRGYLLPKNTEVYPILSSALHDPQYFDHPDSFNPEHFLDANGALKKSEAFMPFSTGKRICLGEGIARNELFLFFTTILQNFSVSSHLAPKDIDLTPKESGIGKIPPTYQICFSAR
Procedure: as §1, §2, §3, §4, §5, §6

For `CC1=CC(=O)c2c(O)cccc2C1=O` [plumbagin, 5-hydroxy-2-methyl-1,4-naphthoquinone], the IC50 [1] was 3.85 µM, the Ki [1] was 7.85 µM and the Type of inhibition [1] was “competitive”. For the same compound, the IC50 [2] was 5.86 µM, the Ki [2] was 9.93 µM and the Type of inhibition [2] was “competitive”.
